Earlier results, collected in publication PMC7992120 (Nature chemical biology, 2018).

Experiments:
[1] = tested on: human bradykinin 1 receptor (B1R); conditions: for affinity for B1R of peptides lacking N-terminal lysine (in words): no reference at the sentence (Fig. 1)
[2] = tested on: human bradykinin 2 receptor (B2R); conditions: for affinity for B2R (in words): agonist
dog B1R = conditions: D^7.29 replaced by Asn
[3] = tested on: B2R, "these residues" replaced by alanine or positively charged amino acids; conditions: replacement by alanine or positively charged amino acids

Row | Substance | affinity for B1R of peptides lacking N-terminal lysine (in words) ([1]; human B1R) | affinity for B2R, Figure 1 legend (in words) [2] | affinity for B2R (in words) [2] | further results
1 | KRPPGFSPL [DALK] |  |  |  | B1R antagonism / affinity (in words) ([1]; B1R antagonist): high-affinity antagonist for B1R
2 | desArg^9-bradykinin [DABK] | rather low affinity to the B1R |  |  | affinity for B2R of desArg peptides (in words) [2]: only weak binding affinity to the B2R; affinity for B1R, Figure 1 legend (in words) ([1]; human B1R): not DABK, binds with high affinity to B1R; selectivity between DAKD and DABK (in words) (dog B1R): no significant selectivity between DAKD and DABK
3 | bradykinin (RPPGFSPFR; Bradykinin; UniProt P01042 381-389, looked up) [BK] | rather low affinity to the B1R | high-affinity ligands for B2R | high-affinity agonists | BK binding of mutant (in words) [3]: substantially impairs BK binding in B2R
4 | kallidin [KD] |  | high-affinity ligands for B2R | high-affinity agonists | 
